Data taken from US12097202B2 (Kadmon Corporation, LLC, priority 2022, dated 2024).

Test system: patients with chronic GVHD
Test: Example 2: phase II randomized study of belumosudil (KD025-213) in cGVHD, efficacy and safety;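 further: allogeneic HCT recipients aged ≥12 years with persistent cGVHD after two to five earlier systemic treatment lines, responses judged by site investigators, 12-month analysis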
Conditions: for Cough / Diarrhea / Dyspnea / Fatigue / Headache / Muscle spasms / Nausea / Peripheral edema / Vomiting: All grades; for Hyperglycemia / Hypertension / Pneumonia: Grade ≥3; for ALT increased / AST increased / Bilirubin conjugated increased / Blood alkaline phosphatase increased / GGT increased / Hypoalbuminemia / LFT increased / Transaminases increased: Liver-related AE; for Clinically significant improvement from baseline (LSS), Overall: decrease ≥7 points in LSS score
[1] = 200 mg BID (n = 66), of subjects with organ involved
[2] = 200 mg QD (n = 66), of subjects with organ involved
[3] = Total (N = 132), of subjects with organ involved
[4] = Total, N=132, mITT, listed as Belumosudil

Description: Concomitant treatment with supportive care therapies for chronic GVHD was permitted. […] Initiation of new systemic chronic GVHD therapy while on study was not permitted.
Eligible subjects were allogeneic hematopoietic cell transplant recipients aged ≥12 years with persistent cGVHD manifestations after receiving 2 to 5 prior systemic lines of therapy. Subjects were required to be receiving stable corticosteroid therapy for 2 weeks prior to screening and to have a Karnofsky or Lansky Performance Status Scale score≥60. Certain concurrent immunosuppressive medications were allowed because drug-drug interactions were not anticipated.
Randomization was stratified (1:1) by cGVHD severity and prior exposure to ibrutinib.
All responses were assessed by the study site investigators. Secondary end points included duration of response (DOR), time to response, changes in LSS summary score, failure-free survival (FFS), corticosteroid dose reductions, and overall survival (OS). DOR was measured from the time of initial PR or CR until documented progression from best response of cGVHD, time from initial response to start of additional systemic cGVHD therapy, or death. The 7-day LSS summary score was calculated based on the developer recommendations and was compared with the score from baseline; an improvement ≥7 points was considered clinically meaningful. […] Relative dose intensity (RDI) was used as a surrogate measure of drug tolerability and was defined as actual dose intensity/planned dose intensity, where dose intensity was defined as the cumulative dose over the duration of exposure (mg/d). Actual dose intensity captured the sum of actual doses received over the duration of exposure and incorporated dose reductions and/or interruptions.
The Hochberg procedure was used for multiplicity adjustment for the primary end point of best ORR. […] CI was calculated using the Clopper-Pearson interval (exact) method.

CC(C)NC(=O)COc1cccc(-c2nc(Nc3ccc4[nH]ncc4c3)c3ccccc3n2)c1 [belumosudil, 2-{3-[4-(1H-indazol-5-ylamino)-2-quinazolinyl]phenoxy}-N-(propan-2-yl) acetamide]
CR, Eyes [1]: (12) % | CR, Joints and fascia [1]: (20) % | CR, Lower GI [1]: (57) % | ORR, Esophagus [1]: (42) % | ORR, Lower GI [1]: (71) % | ORR, Lungs [1]: (22) % | ORR, Mouth [1]: (57) % | ORR, Skin [1]: (42) % | ORR, Upper GI [1]: (40) % | PR, Joints and fascia [1]: (47) % | PR, Lower GI [1]: (14) % | CR, Joints and fascia [2]: (20) % | CR, Liver [2]: (22) % | CR, Lungs [2]: (17) % | CR, Upper GI [2]: (54) % | ORR, Eyes [2]: (33) % | ORR, Joints and fascia [2]: (75) % | ORR, Liver [2]: (33) % | ORR, Lower GI [2]: (67) % | ORR, Lungs [2]: (29) % | ORR, Mouth [2]: (53) % | ORR, Skin [2]: (33) % | ORR, Upper GI [2]: (62) % | PR, Skin [2]: (18) % | Clinically significant improvement from baseline (LSS), Nonresponder (200 mg daily): (29) % | Any AE (200 mg daily (n = 66)): (99) % | Deaths (200 mg daily (n = 66)): (12) % | Drug-related AEs (200 mg daily (n = 66)): (74) % | Drug-related SAEs (200 mg daily (n = 66)): (8) % | Grade ≥3 AEs (200 mg daily (n = 66)): (56) % | Liver-related AEs (200 mg daily (n = 66)): (18) % | SAEs (200 mg daily (n = 66)): (41) % | CS discontinuation (200 mg daily, n=66, mITT): (20) % | FFS at 6 mo (200 mg daily, n=66, mITT): 73% | ORR (best, any time) (200 mg daily, n=66, mITT): (74) % | ORR for responses occurring within 6 mo of treatment (200 mg daily, n=66, mITT): (71) % | ORR for responses occurring within 12 mo of treatment (200 mg daily, n=66, mITT): (74) % | PR, within 6 mo of treatment (200 mg daily, n=66, mITT): (68) % | PR, within 12 mo of treatment (200 mg daily, n=66, mITT): (68) % | Clinically significant improvement from baseline (LSS), Nonresponder (200 mg twice daily): (33) % | Clinically significant improvement from baseline (LSS), Responder (200 mg twice daily): (71) % | Any AE (200 mg twice daily (n = 66)): (100) % | Deaths (200 mg twice daily (n = 66)): (9) % | Drug-related AEs (200 mg twice daily (n = 66)): (61) % | Drug-related SAEs (200 mg twice daily (n = 66)): (3) % | Grade ≥3 AEs (200 mg twice daily (n = 66)): (52) % | Liver-related AEs (200 mg twice daily (n = 66)): (29) % | SAEs (200 mg twice daily (n = 66)): (35) % | FFS at 6 mo (200 mg twice daily, n=66, mITT): 76% | ORR (best, any time) (200 mg twice daily, n=66, mITT): (77) % | PR, within 6 mo of treatment (200 mg twice daily, n=66, mITT): (71) % | PR, within 12 mo of treatment (200 mg twice daily, n=66, mITT): (73) % | Cough (200 mg daily (n = 66)): (30) % | Diarrhea (200 mg daily (n = 66)): (35) % | Dyspnea (200 mg daily (n = 66)): (32) % | Fatigue (200 mg daily (n = 66)): (46) % | Headache (200 mg daily (n = 66)): (20) % | Muscle spasms (200 mg daily (n = 66)): (20) % | Nausea (200 mg daily (n = 66)): (35) % | Peripheral edema (200 mg daily (n = 66)): (26) % | Vomiting (200 mg daily (n = 66)): (27) % | Cough (200 mg twice daily (n = 66)): (26) % | Diarrhea (200 mg twice daily (n = 66)): (32) % | Dyspnea (200 mg twice daily (n = 66)): (18) % | Fatigue (200 mg twice daily (n = 66)): (30) % | Headache (200 mg twice daily (n = 66)): (27) % | Muscle spasms (200 mg twice daily (n = 66)): (20) % | Nausea (200 mg twice daily (n = 66)): (27) % | Peripheral edema (200 mg twice daily (n = 66)): (20) % | Vomiting (200 mg twice daily (n = 66)): (15) % | Cough (Total (N = 132)): (28) % | Diarrhea (Total (N = 132)): (33) % | Dyspnea (Total (N = 132)): (25) % | Fatigue (Total (N = 132)): (38) % | Headache (Total (N = 132)): (24) % | Muscle spasms (Total (N = 132)): (20) % | Nausea (Total (N = 132)): (31) % | Peripheral edema (Total (N = 132)): (23) % | Vomiting (Total (N = 132)): (21) % | Hyperglycemia (200 mg daily (n = 66)): (5) % | Hypertension (200 mg daily (n = 66)): (6) % | Pneumonia (200 mg daily (n = 66)): (9) % | Hyperglycemia (200 mg twice daily (n = 66)): (5) % | Hypertension (200 mg twice daily (n = 66)): (6) % | Pneumonia (200 mg twice daily (n = 66)): (6) % | Hyperglycemia (Total (N = 132)): (5) % | Hypertension (Total (N = 132)): (6) % | Pneumonia (Total (N = 132)): (8) % | ALT increased (200 mg daily (n = 66)): (6) % | AST increased (200 mg daily (n = 66)): (8) % | Bilirubin conjugated increased (200 mg daily (n = 66)): (2) % | Blood alkaline phosphatase increased (200 mg daily (n = 66)): (6) % | GGT increased (200 mg daily (n = 66)): (9) % | Hypoalbuminemia (200 mg daily (n = 66)): (3) % | LFT increased (200 mg daily (n = 66)): (2) % | Transaminases increased (200 mg daily (n = 66)): (2) % | ALT increased (200 mg twice daily (n = 66)): (11) % | AST increased (200 mg twice daily (n = 66)): (12) % | Bilirubin conjugated increased (200 mg twice daily (n = 66)): 0% | Blood alkaline phosphatase increased (200 mg twice daily (n = 66)): (9) % | GGT increased (200 mg twice daily (n = 66)): (15) % | Hypoalbuminemia (200 mg twice daily (n = 66)): (3) % | LFT increased (200 mg twice daily (n = 66)): 0% | Transaminases increased (200 mg twice daily (n = 66)): (2) % | ALT increased (Total (N = 132)): (8) % | AST increased (Total (N = 132)): (10) % | Bilirubin conjugated increased (Total (N = 132)): (1) % | Blood alkaline phosphatase increased (Total (N = 132)): (8) % | GGT increased (Total (N = 132)): (12) % | Hypoalbuminemia (Total (N = 132)): (3) % | LFT increased (Total (N = 132)): (1) % | Transaminases increased (Total (N = 132)): (2) % | Clinically significant improvement from baseline (LSS), Nonresponder (Total): (31) % | Clinically significant improvement from baseline (LSS), Responder (Total): (70) % | Any AE (Total (N = 132)): (99) % | Drug-related AEs (Total (N = 132)): (67) % | Drug-related SAEs (Total (N = 132)): (5) % | Grade ≥3 AEs (Total (N = 132)): (54) % | Liver-related AEs (Total (N = 132)): (24) % | SAEs (Total (N = 132)): (38) % | CR, Esophagus [3]: (45) % | CR, Eyes [3]: (14) % | CR, Joints and fascia [3]: (20) % | CR, Liver [3]: (31) % | CR, Lower GI [3]: (62) % | CR, Lungs [3]: (13) % | CR, Mouth [3]: (44) % | CR, Skin [3]: (16) % | CR, Upper GI [3]: (48) % | ORR, Esophagus [3]: (45) % | ORR, Eyes [3]: (42) % | ORR, Joints and fascia [3]: (71) % | ORR, Liver [3]: (39) % | ORR, Lower GI [3]: (69) % | ORR, Lungs [3]: (26) % | ORR, Mouth [3]: (56) % | ORR, Skin [3]: (37) % | ORR, Upper GI [3]: (52) % | PR, Esophagus [3]: 0% | PR, Eyes [3]: (28) % | PR, Joints and fascia [3]: (51) % | PR, Liver [3]: (8) % | PR, Lower GI [3]: (8) % | PR, Lungs [3]: (13) % | PR, Mouth [3]: (11) % | PR, Skin [3]: (21) % | PR, Upper GI [3]: (4) % | Deaths (Total (N = 132), six during LTFU): (11) % | CR, within 6 mo of treatment (Total, N=132, mITT): (2) % | CR, within 12 mo of treatment (Total, N=132, mITT): (5) % | FFS at 6 mo (Total, N=132, mITT): 75% | FFS at 12 mo (Total, N=132, mITT): 56% | Mean change in CS dose from baseline, Overall (Total, N=132, mITT): −45% | Median CS reduction from baseline to greatest reduction (Total, N=132, mITT): 50% | ORR (best, any time) (Total, N=132, mITT): (76) % | ORR for responses occurring within 6 mo of treatment (Total, N=132, mITT): (72) % | ORR for responses occurring within 12 mo of treatment (Total, N=132, mITT): (75) % | PR, within 6 mo of treatment (Total, N=132, mITT): (70) % | PR, within 12 mo of treatment (Total, N=132, mITT): (71) % | Proportion with CS reduction (Total, N=132, mITT): 65% | CS discontinuation [4]: 21) % | Proportion with CS reduction [4]: (65) % | Clinically significant improvement from baseline (LSS), Overall (200 mg daily, n=66, mITT): 59% | Clinically significant improvement from baseline (LSS), Overall (200 mg daily, n=66, mITT, listed as Belumosudil): (59) % | Clinically significant improvement from baseline (LSS), Overall (200 mg twice daily, n=66, mITT): 62% | Clinically significant improvement from baseline (LSS), Overall (200 mg twice daily, n=66, mITT, listed as Belumosudil): (62) % | Clinically significant improvement from baseline (LSS), Overall (Total, N=132, mITT): (61) % | Grade ≥3 anemia (in vivo): 3% | Grade ≥3 cytopenias (in vivo): < 4% | Grade ≥3 neutropenia (in vivo): 2% | Grade ≥3 thrombocytopenia (in vivo): 2% | SAE: pneumonia (in vivo): 7% | discontinued because of overall AEs (in vivo): 21% | discontinued because of possible drug-related AEs (in vivo): 12% | discontinued because of progression of cGVHD (in vivo): 16% | discontinued because of progression of underlying malignant disease (in vivo): 4% | grade 3 or 4 AE: hyperglycemia (in vivo): 5% | grade 3 or 4 AE: hypertension (in vivo): 6% | grade 3 or 4 AE: pneumonia (in vivo): 8% | liver-related AE: increased GGT (in vivo): 12% | subjects who discontinued calcineurin inhibitor (CNI) therapy (in vivo): 22% | subjects who received an RDI >95% (in vivo): Eighty-one | subjects with >1 SAE (in vivo): Thirty eight | subjects with increased liver function tests (LFTs) (in vivo): Twenty-four | organ-specific best ORR, esophagus (mITT, pooled): 45% | organ-specific best ORR, eyes (mITT, pooled): 42% | organ-specific best ORR, joints/fascia (mITT, pooled): 71% | organ-specific best ORR, liver (mITT, pooled): 39% | organ-specific best ORR, lower GI tract (mITT, pooled): 69% | organ-specific best ORR, lungs (mITT, pooled): 26% | organ-specific best ORR, mouth (mITT, pooled): 55% | organ-specific best ORR, skin (mITT, pooled): 37% | organ-specific best ORR, upper gastrointestinal (GI) tract (mITT, pooled): 52% | nonrelapse mortality (NRM) rate (overall): 7% | share of responses seen after 6 to 12 months of treatment (pooled): 9% | ORRs observed in all subgroups (pooled across arms, mITT): 61-85%
